Our source for the AC50, IC50 and EC50 values is ChEMBL document CHEMBL1201862, “PubChem BioAssay data set” (2004).

The target in test [1] is Dual specificity tyrosine-phosphorylation-regulated kinase 1A (Rattus norvegicus, UniProt Q63470). In kind it is biochemical, Homo sapiens.
Test [2] concerns the target Serine/threonine-protein phosphatase (Homo sapiens, UniProt Q9BPW0). Briefly: Counterscreen for inhibitors of PP1: fluorescence-based biochemical high throughput dose response assay to identify inhibitors of Protein Phosphatase 5 (PP5). [Related pubchem assays: 2034 (Summary (PP5 inhibitors)), 1987 (PP5 inhibitors in singlate), 2235 (PP1 inhibitors in singlate)]. In general terms: Counterscreens check selectivity or assay interference.

Test [3] addresses T1, Replicative DNA helicase DnaB (Mycobacterium tuberculosis, UniProt P9WMR3).
T1 sequence (P9WMR3 whole entry): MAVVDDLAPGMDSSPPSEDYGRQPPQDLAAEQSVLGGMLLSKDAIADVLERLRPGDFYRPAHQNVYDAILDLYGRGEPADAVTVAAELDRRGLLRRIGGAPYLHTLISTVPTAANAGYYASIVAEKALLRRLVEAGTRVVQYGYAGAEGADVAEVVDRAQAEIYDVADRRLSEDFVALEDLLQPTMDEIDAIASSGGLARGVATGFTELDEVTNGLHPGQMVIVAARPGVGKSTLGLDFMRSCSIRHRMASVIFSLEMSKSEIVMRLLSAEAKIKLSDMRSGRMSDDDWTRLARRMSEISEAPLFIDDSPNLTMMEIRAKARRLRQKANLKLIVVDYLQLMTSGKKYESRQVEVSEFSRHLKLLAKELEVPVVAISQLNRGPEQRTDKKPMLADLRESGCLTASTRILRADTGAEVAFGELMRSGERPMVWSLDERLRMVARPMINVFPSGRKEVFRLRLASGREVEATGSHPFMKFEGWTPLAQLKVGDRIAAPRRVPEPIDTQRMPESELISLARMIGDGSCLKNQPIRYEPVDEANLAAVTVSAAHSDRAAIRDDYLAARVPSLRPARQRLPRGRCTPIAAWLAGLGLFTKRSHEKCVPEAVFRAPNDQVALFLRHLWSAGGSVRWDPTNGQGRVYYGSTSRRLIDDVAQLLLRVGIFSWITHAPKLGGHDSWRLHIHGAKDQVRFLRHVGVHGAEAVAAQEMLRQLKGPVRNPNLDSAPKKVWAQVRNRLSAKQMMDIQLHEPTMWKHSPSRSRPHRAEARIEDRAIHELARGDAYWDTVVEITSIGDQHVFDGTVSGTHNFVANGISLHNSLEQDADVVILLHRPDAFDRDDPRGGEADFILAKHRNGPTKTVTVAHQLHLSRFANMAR
Nature of the test: DnaB intein splicing inhibitors, dose response, biochemical, cell-free fluorescence (AID 449749). In kind it is functional.

A further test deals with T2, Protein RecA (Mycobacterium tuberculosis, UniProt P9WHJ3).
T2 sequence (P9WHJ3 whole entry): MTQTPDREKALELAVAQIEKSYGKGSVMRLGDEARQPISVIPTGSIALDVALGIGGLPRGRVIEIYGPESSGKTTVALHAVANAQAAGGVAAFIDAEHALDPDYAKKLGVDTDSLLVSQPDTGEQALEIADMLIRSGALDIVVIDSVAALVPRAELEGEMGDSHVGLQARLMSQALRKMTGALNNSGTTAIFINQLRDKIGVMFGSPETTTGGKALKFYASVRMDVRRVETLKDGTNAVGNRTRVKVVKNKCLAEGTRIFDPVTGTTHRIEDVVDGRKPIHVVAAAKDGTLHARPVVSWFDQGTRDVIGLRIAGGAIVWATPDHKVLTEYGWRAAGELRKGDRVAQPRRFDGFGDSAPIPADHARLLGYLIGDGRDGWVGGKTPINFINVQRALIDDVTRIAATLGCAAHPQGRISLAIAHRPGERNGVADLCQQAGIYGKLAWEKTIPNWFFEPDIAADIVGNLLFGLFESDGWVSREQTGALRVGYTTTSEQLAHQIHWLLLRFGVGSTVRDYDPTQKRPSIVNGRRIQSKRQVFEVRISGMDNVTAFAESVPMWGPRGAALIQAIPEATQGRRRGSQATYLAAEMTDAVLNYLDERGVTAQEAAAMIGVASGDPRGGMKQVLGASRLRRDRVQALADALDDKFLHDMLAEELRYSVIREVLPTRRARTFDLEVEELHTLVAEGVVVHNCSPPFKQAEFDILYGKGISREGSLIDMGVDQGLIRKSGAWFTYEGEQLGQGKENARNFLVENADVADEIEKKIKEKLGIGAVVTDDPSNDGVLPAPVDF
Briefly: Fluorescence Cell-Free Homogeneous Dose Retest to Identify Inhibitors of RecA-Intein Splicing Activity. [Related pubchem assays (depositor defined):AID2097, AID2223, AID489010, AID492950]. In kind it is functional.

The target in the next test is Genome polyprotein (dengue virus type 2, UniProt P29990). Nature of the test: flavivirus cap methylation enzyme inhibition – biochemical, confirmation dose response, primary screen (AID 588689). In kind it is functional.
Sequence of Genome polyprotein (P29990 2492-3391 limits assumed): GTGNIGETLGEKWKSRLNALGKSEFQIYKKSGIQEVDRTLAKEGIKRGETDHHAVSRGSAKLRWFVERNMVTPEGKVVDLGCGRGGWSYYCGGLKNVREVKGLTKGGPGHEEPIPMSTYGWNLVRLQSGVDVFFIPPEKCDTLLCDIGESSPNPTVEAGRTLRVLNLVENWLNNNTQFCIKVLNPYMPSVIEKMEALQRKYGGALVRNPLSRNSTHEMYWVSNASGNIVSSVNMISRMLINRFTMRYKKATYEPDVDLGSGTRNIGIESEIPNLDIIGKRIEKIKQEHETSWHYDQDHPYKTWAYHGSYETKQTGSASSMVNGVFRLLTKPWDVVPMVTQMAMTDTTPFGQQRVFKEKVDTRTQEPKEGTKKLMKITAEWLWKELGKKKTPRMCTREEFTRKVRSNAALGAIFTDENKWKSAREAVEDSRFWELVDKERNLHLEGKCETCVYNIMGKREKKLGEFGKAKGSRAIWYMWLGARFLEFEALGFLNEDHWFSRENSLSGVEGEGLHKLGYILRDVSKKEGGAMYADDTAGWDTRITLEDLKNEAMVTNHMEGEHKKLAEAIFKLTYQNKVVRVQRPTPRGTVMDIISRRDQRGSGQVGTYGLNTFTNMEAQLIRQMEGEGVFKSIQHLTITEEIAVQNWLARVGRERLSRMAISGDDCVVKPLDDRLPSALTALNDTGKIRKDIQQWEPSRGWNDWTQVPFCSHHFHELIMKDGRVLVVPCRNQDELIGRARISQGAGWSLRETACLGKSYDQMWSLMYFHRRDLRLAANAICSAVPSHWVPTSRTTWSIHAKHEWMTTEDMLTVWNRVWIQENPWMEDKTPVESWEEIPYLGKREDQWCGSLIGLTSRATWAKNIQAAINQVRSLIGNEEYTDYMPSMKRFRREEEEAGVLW
Test [4] has as its target Serine/threonine-protein phosphatase PP1-alpha catalytic subunit (Homo sapiens, UniProt P62136). Nature of the test: inhibition of protein phosphatase 1 activity – biochemical, fluorescence, dose response (AID 2403).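 Also: phosphatase turnover of OMFP into fluorescent 3-O-methylfluorescein.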
The target of test [5] is T3, Heat shock 70 kDa protein 1A (Homo sapiens, UniProt P0DMV8). Briefly: small molecules displacing fluorescent ligand from Hsp70 – biochemical, fluorescence polarization, primary screen (AID 583). On the technique in general: In fluorescence polarisation assays a small probe gives low polarisation when free and higher when bound to something large.
T3 sequence (P0DMV8 whole entry): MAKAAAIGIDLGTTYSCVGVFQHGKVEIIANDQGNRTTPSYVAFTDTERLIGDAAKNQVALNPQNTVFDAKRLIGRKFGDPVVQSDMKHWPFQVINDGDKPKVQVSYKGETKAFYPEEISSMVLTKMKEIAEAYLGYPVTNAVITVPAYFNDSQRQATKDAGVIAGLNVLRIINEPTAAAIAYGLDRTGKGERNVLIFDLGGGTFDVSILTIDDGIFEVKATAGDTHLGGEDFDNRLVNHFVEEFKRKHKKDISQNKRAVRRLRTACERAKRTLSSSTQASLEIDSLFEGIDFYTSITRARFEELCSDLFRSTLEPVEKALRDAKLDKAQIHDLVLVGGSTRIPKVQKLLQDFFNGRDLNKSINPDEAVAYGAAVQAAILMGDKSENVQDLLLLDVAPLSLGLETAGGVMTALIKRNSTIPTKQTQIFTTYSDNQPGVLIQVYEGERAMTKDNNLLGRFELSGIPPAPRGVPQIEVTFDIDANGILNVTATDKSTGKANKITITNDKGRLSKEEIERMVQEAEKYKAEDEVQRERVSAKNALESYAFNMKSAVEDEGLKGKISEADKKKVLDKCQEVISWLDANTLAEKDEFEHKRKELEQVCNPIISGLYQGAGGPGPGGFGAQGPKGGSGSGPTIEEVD
For test [6], the target named is T3, Heat shock 70 kDa protein 1A. Nature of the test: small-molecule inhibition of Hsp70 – biochemical, TR-FRET (AID 786). A general note: In TR-FRET formats the signal depends on donor and acceptor labels being close together.
A further test deals with T4, Bcl-2-like protein 10 (Homo sapiens, UniProt Q9HD36).
T4 sequence (Q9HD36 whole entry): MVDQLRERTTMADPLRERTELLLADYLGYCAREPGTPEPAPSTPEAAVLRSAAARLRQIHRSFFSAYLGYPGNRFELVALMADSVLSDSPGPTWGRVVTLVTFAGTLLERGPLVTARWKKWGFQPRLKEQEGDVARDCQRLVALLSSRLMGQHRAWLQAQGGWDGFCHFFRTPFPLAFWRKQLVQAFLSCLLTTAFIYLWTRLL
Nature of the test: Concentration-response of Bcl-B inhibitors by biochemical FP with TR3 (AID 1243). In kind it is functional.

Test [7] can be described thus: Luminescence Cell-Based/Microorganism Confirmation at Dose of Inhibitors of Trypanosoma cruzi Infection. [Related pubchem assays: 1885, 1968 ]. In kind it is functional.
A short description of test [8]: T. cruzi growth inhibition in host cells, dose response, cell-based, plate reader, dry powder, set 2 (AID 652275). In kind it is functional.
Test [9] is described as follows: Trypanosoma cruzi growth suppression in host cells – NIH3T3 host cells, beta-gal luminescence, confirmation (AID 2044).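 Also: intracellular parasites grown in NIH/3T3 mouse fibroblasts as host cells; luminescent beta-galactosidase reporter signal from transgenic T. cruzi replicating inside host cells; inhibitors lower the luminescence signal.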 In kind it is functional, cell-based.
Test [10] in a line: Luminescence Cell-Based Secondary HTS screen to identify cytotoxic compounds of NIH3T3 cells. [Related pubchem assays: 1885, 1968 ]. In kind it is functional.
Test [11] in a line: anti-trypanosomal activity in BESM host cells – imaging, CA-I/72 strain, bovine embryo skeletal muscle, dry powder, dose response (AID 651885). In kind it is functional, cell-based.
Test [12] in a line: NIH3T3 cell viability loss – ATP luminescence, mouse fibroblasts, counter-screen, dose response (AID 2010).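 Also: cells exposed to compound for about 90 hours before reading.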 In kind it is functional, cell-based.
A short description of test [13]: T. cruzi infection blockers in NIH3T3 cells – beta-gal luminescence, NIH3T3 host cells, confirmation (AID 2630). In kind it is functional, cell-based. To be noted: Mus musculus.
The target in test [14] is Inward rectifier potassium channel 2 (Mus musculus, UniProt P35561). Briefly: Manual electrophysiological patch clamp assay for SAR compounds that inhibit/block inward-rectifying potassium ion channel Kir2.1. [Related pubchem assays: 1843 (Summary assay for Kir2.1 inhibitor assays.), 1672 (Primary HTS of 305616 compounds where 2592 were identified as active.)]. In kind it is functional.
Sequence of Inward rectifier potassium channel 2 (P35561 whole entry): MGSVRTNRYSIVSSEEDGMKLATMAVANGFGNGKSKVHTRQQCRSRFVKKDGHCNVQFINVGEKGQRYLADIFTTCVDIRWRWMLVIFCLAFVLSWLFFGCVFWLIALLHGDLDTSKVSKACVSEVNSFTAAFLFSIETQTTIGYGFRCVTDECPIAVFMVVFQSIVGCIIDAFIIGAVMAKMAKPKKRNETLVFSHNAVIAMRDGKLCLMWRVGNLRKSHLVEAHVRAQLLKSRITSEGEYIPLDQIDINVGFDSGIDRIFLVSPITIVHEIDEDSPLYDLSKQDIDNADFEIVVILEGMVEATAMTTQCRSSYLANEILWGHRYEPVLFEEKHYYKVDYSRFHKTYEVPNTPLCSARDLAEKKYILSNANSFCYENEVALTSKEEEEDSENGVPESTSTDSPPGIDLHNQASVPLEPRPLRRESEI

The target in test [15] is Neuropeptide Y receptor type 1 (Homo sapiens, UniProt P25929). Nature of the test: Fluorescence-based counterscreen for agonists of NPY-Y2: cell-based high-throughput dose response assay for agonists of NPY-Y1. In kind it is functional.
Sequence of Neuropeptide Y receptor type 1 (P25929 whole entry): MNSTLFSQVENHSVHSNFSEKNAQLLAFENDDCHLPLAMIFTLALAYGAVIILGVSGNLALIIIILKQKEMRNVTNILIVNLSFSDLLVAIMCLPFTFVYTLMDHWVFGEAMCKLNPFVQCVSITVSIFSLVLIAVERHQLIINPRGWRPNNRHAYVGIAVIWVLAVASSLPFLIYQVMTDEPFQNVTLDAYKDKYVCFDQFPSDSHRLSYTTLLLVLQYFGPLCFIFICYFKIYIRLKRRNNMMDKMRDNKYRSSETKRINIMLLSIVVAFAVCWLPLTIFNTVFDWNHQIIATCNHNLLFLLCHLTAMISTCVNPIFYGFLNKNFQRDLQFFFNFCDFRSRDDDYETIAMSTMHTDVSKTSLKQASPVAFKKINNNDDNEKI
Test [16] addresses Neuropeptide Y receptor type 2 (Homo sapiens, UniProt P49146). Briefly: Fluorescence-based cell-based high-throughput dose response assay for agonists of NPY-Y2. [Related pubchem assays: 1703 (Screening assay (CNGC inhibitors).), 1359 (Screening assay (NPY-Y2 potentiators or agonists).), 1304 (Screening assay (NPY-Y1 potentiators or agonists).), 1710 (Screening assay (NPY-Y2 agonists).), 1791 (Summary AID.)]. In kind it is functional.

The next test relates to HEK293. Nature of the test: Fluorescence-based counterscreen for potentiators or agonists of NPY-Y2: cell-based high-throughput dose response assay to identify inhibitors of cyclic nucleotide gated ion channel (CNGC) activity. In this assay, the parental HEK293 cell line transfected with a cyclic-nucleotide gated ion channel (CNGC)-based cAMP sensor is used to measure inhibition of isoproterenol-induced CNGC activity by test compound. In kind it is functional. The note with it: Homo sapiens.

Test [17] is described as follows: mitochondrial function rescue without frataxin homolog – Friedreich's ataxia, plus single-dose screen, dose response (AID 1465).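 Also: yeast depleted of Yfh1p frataxin homolog grown on glycerol needing respiration; WST-1 tetrazolium dye reduction as measure of cellular dehydrogenase metabolic activity.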 In kind it is functional.
A further test deals with T5, Insulin-degrading enzyme (Homo sapiens, UniProt P14735).
T5 sequence (P14735 whole entry): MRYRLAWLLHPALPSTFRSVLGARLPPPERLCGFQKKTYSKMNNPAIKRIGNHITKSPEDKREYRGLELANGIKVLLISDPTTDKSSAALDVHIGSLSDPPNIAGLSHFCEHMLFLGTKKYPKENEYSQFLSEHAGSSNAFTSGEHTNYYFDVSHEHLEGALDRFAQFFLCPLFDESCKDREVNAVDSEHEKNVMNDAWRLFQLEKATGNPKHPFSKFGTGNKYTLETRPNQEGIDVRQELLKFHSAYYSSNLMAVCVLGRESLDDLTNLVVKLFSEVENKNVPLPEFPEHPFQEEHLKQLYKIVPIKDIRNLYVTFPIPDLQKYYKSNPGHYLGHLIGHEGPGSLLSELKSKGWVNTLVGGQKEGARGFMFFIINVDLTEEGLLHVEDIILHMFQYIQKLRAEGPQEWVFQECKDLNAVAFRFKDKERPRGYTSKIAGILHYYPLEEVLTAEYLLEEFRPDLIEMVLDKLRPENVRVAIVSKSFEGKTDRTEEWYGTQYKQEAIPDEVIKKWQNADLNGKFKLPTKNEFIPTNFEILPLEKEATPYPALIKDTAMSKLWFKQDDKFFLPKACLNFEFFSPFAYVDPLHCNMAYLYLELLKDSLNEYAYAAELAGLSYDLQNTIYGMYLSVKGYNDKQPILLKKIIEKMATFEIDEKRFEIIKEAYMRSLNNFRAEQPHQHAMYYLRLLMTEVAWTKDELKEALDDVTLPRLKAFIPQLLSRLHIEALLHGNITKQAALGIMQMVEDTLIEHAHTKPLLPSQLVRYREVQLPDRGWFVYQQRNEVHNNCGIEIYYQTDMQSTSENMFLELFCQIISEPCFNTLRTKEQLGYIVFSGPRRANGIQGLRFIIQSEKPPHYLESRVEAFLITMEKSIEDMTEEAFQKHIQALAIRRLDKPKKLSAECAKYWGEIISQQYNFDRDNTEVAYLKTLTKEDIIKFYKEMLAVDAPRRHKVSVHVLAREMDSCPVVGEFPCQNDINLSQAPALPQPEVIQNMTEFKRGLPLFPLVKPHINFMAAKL
Nature of the test: Dose Response: Fluorescence polarization-based cell-based high throughput dose response assay for inhibitors of insulin-degrading enzyme (IDE). [Related pubchem assays: 434962 (Primary screen (IDE inhibitors in singlicate)), 449730 (Counterscreen (Cytotoxicity in triplicate)), 435028 (Confirmation (IDE inhibitors in triplicate)), 434984 (Summary …. In kind it is functional.

Test [18] is described as follows: Counterscreen for IDE inhibitors: Luminescence-based cell-based high throughput dose response assay to identify compounds that are cytotoxic to HEK cells. [Related pubchem assays: 434962 (Primary screen (IDE inhibitors in singlicate)), 449730 (Counterscreen (Cytotoxicity in triplicate)), 435028 (Confirmation (IDE inhibitors in triplicate)) …. In kind it is functional. The note with it: HEK293.

The structures appear in SMILES notation. Calls of active or inactive are those of the source. A value given as a limit tells only on which side of the number the result lay.

Usually AC50 stands for the midpoint of the concentration-response curve, whichever way the signal moves. Broadly, the IC50 is the concentration that inhibits the measured activity by half. In general, EC50 refers to the concentration at which the effect is half-maximal.

Sequence of Serine/threonine-protein phosphatase (Q9BPW0 whole entry): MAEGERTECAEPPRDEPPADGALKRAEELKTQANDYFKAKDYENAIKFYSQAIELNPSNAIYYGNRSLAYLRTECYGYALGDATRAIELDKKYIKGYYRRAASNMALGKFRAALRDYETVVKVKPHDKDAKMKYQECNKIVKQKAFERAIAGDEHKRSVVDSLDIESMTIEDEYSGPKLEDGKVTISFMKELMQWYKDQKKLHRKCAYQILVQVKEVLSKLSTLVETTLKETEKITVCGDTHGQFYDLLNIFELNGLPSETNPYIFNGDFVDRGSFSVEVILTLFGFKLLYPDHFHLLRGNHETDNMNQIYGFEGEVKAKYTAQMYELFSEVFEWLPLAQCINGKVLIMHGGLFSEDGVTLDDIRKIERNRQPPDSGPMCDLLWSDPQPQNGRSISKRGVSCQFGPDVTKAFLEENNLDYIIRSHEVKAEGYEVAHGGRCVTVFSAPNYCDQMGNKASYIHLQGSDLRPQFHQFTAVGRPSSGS
Sequence of Neuropeptide Y receptor type 2 (P49146 whole entry): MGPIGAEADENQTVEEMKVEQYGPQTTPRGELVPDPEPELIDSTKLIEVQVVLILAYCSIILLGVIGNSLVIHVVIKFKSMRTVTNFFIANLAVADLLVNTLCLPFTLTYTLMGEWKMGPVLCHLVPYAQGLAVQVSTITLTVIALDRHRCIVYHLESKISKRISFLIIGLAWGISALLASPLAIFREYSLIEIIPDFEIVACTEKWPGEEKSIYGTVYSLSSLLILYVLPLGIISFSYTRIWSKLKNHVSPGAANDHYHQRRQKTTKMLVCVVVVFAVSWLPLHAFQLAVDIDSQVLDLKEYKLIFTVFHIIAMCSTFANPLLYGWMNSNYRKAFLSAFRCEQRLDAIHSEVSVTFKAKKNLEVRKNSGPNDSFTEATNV
Sequence of Serine/threonine-protein phosphatase PP1-alpha catalytic subunit (P62136 whole entry): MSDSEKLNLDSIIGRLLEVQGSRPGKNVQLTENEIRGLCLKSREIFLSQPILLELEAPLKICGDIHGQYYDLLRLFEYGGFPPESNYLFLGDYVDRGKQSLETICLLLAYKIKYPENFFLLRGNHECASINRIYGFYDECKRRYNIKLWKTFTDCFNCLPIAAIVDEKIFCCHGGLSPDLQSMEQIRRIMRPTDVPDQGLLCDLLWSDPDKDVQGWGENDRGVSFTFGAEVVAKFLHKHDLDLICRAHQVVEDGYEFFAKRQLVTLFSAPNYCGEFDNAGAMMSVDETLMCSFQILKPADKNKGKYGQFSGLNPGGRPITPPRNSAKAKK

In the case of `O=C(O)CC1OCC=C2CN3CCC45C6=CC(=O)C(O)=C([N+](=O)[O-])C6=NC4C1C2CC35` (centres undefined), the AC50 is 3.17 µM (active) in test [1] and 6.67 µM (active) in test [3]. Moreover, the IC50 in [2] is > 0.276 µM (active); on Genome polyprotein, > 100 µM (active); in [4], 1.97 µM (active). Moreover, the EC50 on Protein RecA is 7.02 µM (active).
`Cc1cc(NC(=O)CSc2ncnc3ccccc23)no1`: the IC50 in [5] and in test [6] was > 100 µM (not active) in each case.
As for `Cc1ccc2oc3cc(NCCCN(C)C)c4c(=O)c5ccccc5c(=O)c4c3[nH]c2c1`, the EC50 at Bcl-2-like protein 10 is 0.67 µM (active).
With `CCCn1ncc(CN2CCCC(C(=O)c3cccc(OC(C)C)c3)C2)c1C` (centres undefined), the EC50 is 0.047 µM (active) in test [7]; < 0.1 µM (active) in test [9]; > 195 µM (not active) in [10]; > 60 µM (not active) in [12]; 0.054 µM (active) in the test “cells”; 0.047 µM (active) in test [13]. For the same compound, the AC50 in test [8] is 0.0589 µM (active). Besides, the IC50 in test [11] was > 20 µM (inactive).
Take `COc1ccc(CNCc2cccc(Cl)c2)cc1`: in test [14], the IC50 is 1.12 µM (active).
Consider `Cc1sc2nc(SCc3ccc(C(=O)O)cc3)n(Cc3ccco3)c(=O)c2c1C`, for which the EC50 (in [15]; in [16]; in the test with HEK293) was > 35.4 µM (not active) in each case.
As to `COc1ccc(C2(c3ccc(O)cc3O)CC(c3ccccc3Cl)N=C(S)N2)cc1` (centres undefined), in [17], the EC50 was > 100 µM (active).
Turning to `CCCN1C(=O)/C(=C/c2ccc(N3CCOCC3)cc2)NC1=S`, the figures for the concentration for half-maximal inhibition (IC50) (at Insulin-degrading enzyme; in [18]) were 33.1 µM (not active) and 19 µM (not active), respectively.
